Measurements reported in patent US20230233671A1, “RNA MOLECULES” (Pfizer Inc., priority 2021, published 2023).

Experiments:
[1] = system: Vero cells; experiment: VZV gE expression and subcellular localization in Vero cells transfected with VZV RNA constructs (imaging); type: cell-based, African green monkeys; conditions: for VZV RNA (Vero cells) MFI: Table 7, VZV gE RNA, see Example 2
Protocol: Expression of VZV RNA constructs were tested in transfected Vero cells, a kidney epithelial cell culture line derived from African green monkeys. Seeded Vero cells were transfected for 24 hours at 37° C., 5% CO2 with 10 ng, 25 ng, or 50 ng of RNA constructs (Table 5) using MESSENGERMAX™ in accordance with the manufacturer's instructions. Cells were washed three times with PBS+Ca/Mg, and fixed in 4% paraformaldehyde (PFA) for 20 minutes at 25° C. Cells were washed twice with 3% bovine serum albumin (BSA) in PBS+Ca/Mg. Primary and secondary staining antibodies were diluted in 0.1% saponin in goat serum. Cells were stained with a 1:1000 dilution of primary antibody for 1 hour at 37° C., washed three times with PBS+Ca/Mg, and incubated with secondary antibody (1:500) and CELLMASK™ (1:140,000) for 45 minutes at 37° C. Cells were then stained with Dapi (1:15,000-1:20,000) for 15 minutes at 25° C., and washed three times with PBS+Ca/Mg. Cells were analyzed for VZV gE expression and subcellular localization using an Opera PHENIX® Plus High-Content Screening System at 10× or 63× magnification.

[2] = system: VZV gE; experiment: Serum VZV gE-binding IgG levels (LUMINEX) in immunized Balb/c mice; type: in vivo; conditions: for Day 28 (GMC), serum gE-binding IgG: 0.5 μg IM Day 0, Day 28 (prime only); for Day 34 (GMC), serum gE-binding IgG: 0.5 μg IM Days 0 and 28, Day 34 (six days after boost); for Day 42 (GMC), serum gE-binding IgG: 0.5 μg IM Days 0 and 28, Day 42 (two weeks after booster)
Protocol: VZV RNA-LNP vaccines were tested for their ability to induce IgG and T cell responses in Balb/c mice. 15 mice per group were immunized in accordance with the schedule and specifications in Table 9. Briefly, 15 mice per group were immunized intramuscularly (IM) on Day 0 and boosted IM on Day 28. Mice immunized with SHINGRIX® received 1, 2.5, or 5 μg, corresponding to 1/50, 1/20, and 1/10 of the human clinical dose (50 μg), respectively; mice immunized with gE_WT CO1 received 0.5 or 1 μg; mice immunized with ms3 CO1 received 0.5 μg; mice immunized with ms4 CO1 received 0.5 μg; mice immunized with gE_WT CO2 received 0.5 μg; mice immunized with lyophilized gE_WT CO1 received 0.5 or 1 μg. Saline was administered on Days 0 and 28 to a negative control group. Serum was collected from mice on Days 28 and 42 for characterization of VZV gE-binding IgG levels (LUMINEX® analyses). Spleens were harvested, and sera collected, from five mice in each group on Day 35 for cellular analyses.
Serum IgG levels were determined for each mouse sample using the LUMINEX® platform. Briefly, diluted sera were incubated in the dark in the presence of blocked, recombinant gE protein-bound single-plex microspheres (MAGPLEX® Microspheres, region 79) for 20±4 hours at 2-8° C., 300 rpm. A secondary antibody solution (R-phycoerythrin Conjugated AffiniPure F(ab)′2 Fragment Goat Anti-Mouse IgG F(ab)′2 Fragment Specific) was prepared at 1:250 in LXA-16 buffer. Plates were washed three times in LXA-20 (EIA-7), and secondary antibody was applied to each well of the assay plate. Plates were covered with aluminum sealers and incubated for 2 hours±15 minutes at 25° C., 300 rpm. Plates were washed three times with LXA-20 (EIA-7) buffer, and 100 ul LXA-20 was applied to each well. Plates were covered with aluminum sealers and incubated at 25° C., 300 rpm for a minimum of 4 minutes, or up to 2 hours. Plates were analyzed on a BIO-PLEX® Reader. IgG titers for Day, 28, 34 and 42 are show in Table 10 and FIGS. 17-19.

[3] = system: human embryonic kidney (HEK) 293T cells; experiment: In vitro expression (IVE) of VZV RNA-LNP vaccines in HEK 293T cells (FACS); type: cell-based; conditions: for VZV RNA-LNPs (293T cells) MFI: Table 7; for VZV RNA-LNPs (293T cells) EC50 (ng/well): Table 7, FIG. 14, input RNA vs percentage of gE-expressing cells, 24 hours
Protocol: In vitro expression (IVE) analyses were conducted to assess the potency of VZV RNA-LNP vaccines. RNA constructs were formulated into LNPs as previously described in Example 3, and a range of input VZV RNA-LNP quantities was transfected into human embryonic kidney (HEK) 293T cells for 24 hours at 37° C., 5% CO2. Transfected cells were washed with DPBS, detached from plate wells using ACCUTASE®, and rinsed with cold PBS. Cells were subjected to live/dead staining, fixation, and permeabilization prior to FACS staining. Fixed and permeabilized cells were incubated with an anti-gE primary antibody (1:1000) for 45 minutes at 2-8° C., washed twice with BD PERM/WASH™ buffer and incubated with a goat anti-human kappa-PE secondary antibody (1:1000) for 30 minutes at 2-8° C. Cells were washed twice with BD PERM/WASH™ buffer, resuspended in 1×FACS buffer, and analyzed on a BD LSRII to determine the proportion of cells expressing VZV gE for each VZV RNA-LNP input. A titration curve was created whereby input RNA quantities were plotted against the percentage of gE-expressing cells to determine the EC50 of each VZV RNA-LNP vaccine.

Substance | subcellular localization of VZV gE ([1]; Vero cells, 50 ng at 63× and 25 ng at 10× magnification) | VZV RNA (Vero cells) MFI [1] | Day 28 (GMC), serum gE-binding IgG [2] | Day 34 (GMC), serum gE-binding IgG [2] | Day 42 (GMC), serum gE-binding IgG [2] | VZV RNA-LNPs (293T cells) MFI [3] | VZV RNA-LNPs (293T cells) EC50 (ng/well) [3] [ng/well]
ms8: RNA constructs encoding VZV gE with deletion of the acidic domain aa 588-602 (SEQ ID NO: 6) | preferentially within cellular membranes |  |  |  |  |  | 
ms4 CO1: modRNA construct, ORF SEQ ID NO: 151, full length VZV gE with substitution Y582A |  | 981 | 3.55 | 112.7 | 598.57 | 1713 | 15
ms3 CO1: modRNA construct, ORF SEQ ID NO: 149, VZV gE with deletion of aa 547-623, secreted |  | 497 | 3.98 | 29.5 | 370.11 | 663 | 231
